Test results published in patent US11426436B2, “Bacteria-comprising compositions and methods of using the same for treating and/or preventing gastrointestinal, metabolic and/or other diseases” (priority 2015, dated 2022).
Values after ≈ are worked out from the molar mass of the structure shown. Like-named read-outs stand apart in the source and are kept apart here.

Key:
[1] = system: Intestinimonas strain AF211; assay: Antibiotic sensitivity (MIC) of Intestinimonas strain AF211; assay type: cell-based, Intestinimonas butyriciproducens
Experimental: “Minimum inhibitory concentration” or “MIC” as used herein refers to the lowest concentration of an antimicrobial that will inhibit the visible growth of a microorganism after overnight incubation. Minimum inhibitory concentrations are important in diagnostic laboratories to confirm resistance of microorganisms to an antimicrobial agent and also to monitor the activity of new antimicrobial agents. An MIC is generally regarded as the most basic laboratory measurement of the activity of an antimicrobial agent against an organism.
Rettedal et al. (Nature Comm. (2014), 5:4714) describe the use of antibiotics to isolate and culture bacteria from the human intestinal tract. However, this approach often results in antibiotic-resistant bacteria and these are undesired in formulations aimed for human or animal use.
Strain AF211 had the following sensitivity to various antibiotics: […]

[2] = system: Intestinimonas strain P1C2; settings: against Intestinimonas strain P1C2, described as resistant; cited from earlier work
[3] = Intestinimonas butyriciproducens, against strain AF211, read-out: MIC

Teicoplanin
MIC ([1]; against strain AF211): 0.047 µg/mL

NC[C@H]1O[C@H](O[C@H]2[C@H](O)[C@@H](O[C@H]3O[C@H](CO)[C@@H](O)[C@H](N)[C@H]3O)[C@H](N)C[C@@H]2N)[C@H](N)C[C@@H]1O [Tobramycin]
MIC [1, 3]: 2 µg/mL (≈ 4.28 µM)

CC[C@H]1OC(=O)[C@H](C)[C@@H](O[C@H]2C[C@@](C)(OC)[C@@H](O)[C@H](C)O2)[C@H](C)[C@@H](O[C@@H]2O[C@H](C)C[C@H](N(C)C)[C@H]2O)[C@](C)(O)C[C@@H](C)C(=O)[C@H](C)[C@@H](O)[C@]1(C)O [Erythromycin]
MIC ([1]; Intestinimonas butyriciproducens, against strain AF211, text value, read-out: MIC of erythromycin): 1 µg/mL
MIC [1, 3]: 0.75 to 1 µg/mL (≈ 1.02 to 1.36 µM)
MIC of erythromycin [2]: 32 µg/mL

Cc1onc(-c2ccccc2)c1C(=O)N[C@@H]1C(=O)N2[C@@H]1SC(C)(C)[C@@H]2C(=O)O [Oxacillin]
MIC [1, 3]: 0.38 µg/mL (≈ 0.947 µM)

CN[C@H](CC(C)C)C(=O)N[C@H]1C(=O)N[C@@H](CC(N)=O)C(=O)N[C@H]2C(=O)N[C@H]3C(=O)N[C@H](C(=O)N[C@H](C(=O)O)c4cc(O)cc(O)c4-c4cc3ccc4O)[C@H](O)c3ccc(c(Cl)c3)Oc3cc2cc(c3O[C@@H]2O[C@H](CO)[C@@H](O)[C@H](O)[C@H]2O[C@H]2C[C@](C)(N)[C@H](O)[C@H](C)O2)Oc2ccc(cc2Cl)[C@H]1O [Vancomycin]
MIC ([1]; Intestinimonas butyriciproducens, AF211): 0.75 µg/mL (≈ 0.518 µM)
